Assay results as given in patent publication US20250179047A1, “5-[7-(3,4-DIHYDRO-1H-ISOQUINOLINE-2-CARBONYL)-1,2,3,4 TETRAHYDROISOQUINOLIN-6-YL]-1H-PYRROLE-3-CARBOXAMIDE DERIVATIVES, PHARMACEUTICAL COMPOSITIONS CONTAINING THEM AND THEIR USES AS PRO-APOPTOTIC AGENTS” (LES LABORATOIRES SERVIER, priority 2022, published 2025).

Tests used:
Assay type in all cases: cell-based
KMS12PE Bcl2 D103E = assay: In vitro cytotoxicity CellTiterGlo 72 h, KMS12PE Bcl2 D103E; conditions: Homo sapiens, KMS-12-PE, read-out: C50 nM, KMS12PE Bcl2 D103E
Procedure: (§1) KMS-12-PE (ACC 606) were purchased from the Leibniz-Institute DSMZ (Braunschweig, Germany) and were grown at 37° C. in a humidified atmosphere with 5% CO2 in media recommended by the suppliers. Lentiviral particles containing Bcl-2 wild type (also named “Bcl2 WT”), Bcl-2 mutated on G101V (also named “Bcl2 G101V”), Bcl-2 mutated on D103Y (also named “Bcl2 D103Y”), Bcl-2 mutated on D103V (also named “Bcl2 D103V”), Bcl-2 mutated on D103E (also named “Bcl2 D103E”), Bcl-2 mutated on F104I (also named “Bcl2 F104I”), Bcl-2 mutated on F104L (also named “Bcl2 F104L”), Bcl-2 mutated on D111A (also named “Bcl2 D111A”), Bcl-2 mutated on A113G (also named “Bcl2 A113G”), Bcl-2 mutated on R129L (also named “Bcl2 R129L”), Bcl-2 mutated on V156D (also named “Bcl2 V156D”) were cloned into pcLV-CMV-DEST-IRES-TagRFP. Lentiviral particles (1×10^6) were mixed with Polybrene at 8 μg/ml and transduced by spinoculation for 1 h at 32° C. and incubated overnight. After 8 days, TagRFP positive-cells were sorted by FACS. BCL2 expression was monitored by immunoblotting using anti-Flag and anti-BCL2 antibodies. Cells were seeded into 96-wells plates and treated with 1:3.16 serial dilution of compounds (9 different concentrations). Cell viability was assessed using CellTiterGlo reagent following treatment for 72 h. Results were normalized to the viability of cells without compounds (control wells). The C50 values were calculated using nonlinear regression algorithms in XCell software.

KMS12PE Bcl2 A113G = assay: In vitro cytotoxicity CellTiterGlo 72 h, KMS12PE Bcl2 A113G; conditions: Homo sapiens, KMS-12-PE, read-out: C50 nM, KMS12PE Bcl2 A113G
Procedure: as §1

KMS12PE Bcl2 G101V = assay: In vitro cytotoxicity CellTiterGlo 72 h, KMS12PE Bcl2 G101V; conditions: Homo sapiens, KMS-12-PE, read-out: C50 nM, KMS12PE Bcl2 G101V
Procedure: as §1

KMS-12-PE Bcl-2 WT = assay: In vitro cytotoxicity CellTiter-Glo 48 h, KMS-12-PE Bcl-2 WT; conditions: C50 = concentration needed to reach 50% of the cellular viability
Method in brief: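 Potency is expressed as C50, the compound concentration at which viability of engineered KMS-12-PE cells (Bcl-2 wild type or G101V) falls to 50%, determined from CellTiter-Glo luminescence after 48 h of treatment over 11 concentrations.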

Cc1c(N(C(=O)c2cc(-c3cc4c(cc3C(=O)N3Cc5ccccc5C[C@H]3C)CN(C(=O)Cc3ccc(OCCN5CCOCC5)cc3)CC4)n(C)c2C)c2ccc(O)cc2)cc(C#N)n1C [Example 21, N-(5-cyano-1,2-dimethyl-1H-pyrrol-3-yl)-N-(4-hydroxyphenyl)-1,2-dimethyl-5-{7-[(3R)-3-methyl-1,2,3,4-tetrahydroisoquinoline-2-carbonyl]-2-(2-{4-[2-(morpholin-4-yl)ethoxy]phenyl}acetyl)-1,2,3,4-tetrahydroisoquinolin-6-yl}-1H-pyrrole-3-carboxamide]
IC50 (KMS12PE Bcl2 D103E): 2.36 nM
IC50 (KMS12PE Bcl2 A113G): 4.06 nM
IC50 (KMS12PE Bcl2 G101V): 9.36 nM
IC50 (KMS-12-PE Bcl-2 WT; Homo sapiens, KMS-12-PE): 0.0057 µM

Cc1c(N(C(=O)c2cc(-c3cc4c(cc3C(=O)N3Cc5ccccc5C[C@H]3C)CN(C(=O)Cc3ccc(OCCC5CCOCC5)cc3)CC4)n(C)c2C)c2ccc(O)cc2)cc(C#N)n1C [Example 27, N-(5-cyano-1,2-dimethyl-1H-pyrrol-3-yl)-N-(4-hydroxyphenyl)-1,2-dimethyl-5-{7-[(3R)-3-methyl-1,2,3,4-tetrahydroisoquinoline-2-carbonyl]-2-(2-{4-[2-(oxan-4-yl)ethoxy]phenyl}acetyl)-1,2,3,4-tetrahydroisoquinolin-6-yl}-1H-pyrrole-3-carboxamide]
IC50 (KMS12PE Bcl2 D103E): 1.44 nM
IC50 (KMS12PE Bcl2 A113G): 2.79 nM
IC50 (KMS12PE Bcl2 G101V): 7.19 nM
IC50 (KMS-12-PE Bcl-2 WT; Homo sapiens, KMS-12-PE): 0.0037 µM

Cc1c(N(C(=O)c2cc(-c3cc4c(cc3C(=O)N3Cc5ccccc5C[C@H]3CN3CCCCC3)CN(C(=O)Cc3ccc(OCCN5CCOCC5)cc3F)CC4)n(C)c2C)c2ccc(O)cc2)cc(C#N)n1C [Example 43, N-(5-cyano-1,2-dimethylpyrrol-3-yl)-5-[2-(2-{2-fluoro-4-[2-(morpholin-4-yl)ethoxy]phenyl}acetyl)-7-{[(3S)-3-(piperidin-1-ylmethyl)-3,4-dihydro-1H-isoquinolin-2-yl]carbonyl}-3,4-dihydro-1H-isoquinolin-6-yl]-N-(4-hydroxyphenyl)-1,2-dimethylpyrrole-3-carboxamide]
IC50 (KMS12PE Bcl2 D103E): 1.44 nM
IC50 (KMS12PE Bcl2 A113G): 2.5 nM
IC50 (KMS12PE Bcl2 G101V): 10 nM
IC50 (KMS-12-PE Bcl-2 WT): 0.0048 µM

Cc1c(N(C(=O)c2cc(-c3cc4c(cc3C(=O)N3Cc5ccccc5C[C@H]3C)CN(C(=O)Cc3ccc(N5CCN6CCOC[C@@H]6C5)cc3F)CC4)n(C)c2C)c2ccc(O)cc2)cc(C#N)n1C [Example 45, 5-[2-(2-{4-[(9aS)-octahydropyrazino[2,1-c][1,4]oxazin-8-yl]-2-fluorophenyl}acetyl)-7-[(3R)-3-methyl-1,2,3,4-tetrahydroisoquinoline-2-carbonyl]-1,2,3,4-tetrahydroisoquinolin-6-yl]-N-(5-cyano-1,2-dimethyl-1H-pyrrol-3-yl)-N-(4-hydroxyphenyl)-1,2-dimethyl-1H-pyrrole-3-carboxamide]
IC50 (KMS12PE Bcl2 D103E): 2.7 nM
IC50 (KMS12PE Bcl2 A113G): 8.03 nM
IC50 (KMS12PE Bcl2 G101V): 18.2 nM
IC50 (KMS-12-PE Bcl-2 WT; Homo sapiens, KMS-12-PE): 0.005 µM

Cc1c(N(C(=O)c2cc(-c3cc4c(cc3C(=O)N3Cc5ccccc5C[C@H]3C)CN(C(=O)Cc3ccc(CCN5CCC(F)(F)CC5)cc3)CC4)n(C)c2C)c2ccc(O)cc2)cc(C#N)n1C [Example 51, N-(5-cyano-1,2-dimethylpyrrol-3-yl)-5-[2-(2-{4-[2-(4,4-difluoropiperidin-1-yl)ethyl]phenyl}acetyl)-7-{[(3R)-3-methyl-3,4-dihydro-1H-isoquinolin-2-yl]carbonyl}-3,4-dihydro-1H-isoquinolin-6-yl]-N-(4-hydroxyphenyl)-1,2-dimethylpyrrole-3-carboxamide]
IC50 (KMS12PE Bcl2 D103E): 2.81 nM
IC50 (KMS12PE Bcl2 A113G): 9.24 nM
IC50 (KMS12PE Bcl2 G101V): 20.2 nM
IC50 (KMS-12-PE Bcl-2 WT; Homo sapiens, KMS-12-PE): 0.0068 µM

COC[C@@H]1Cc2ccccc2CN1C(=O)c1cc2c(cc1-c1cc(C(=O)N(c3ccc(O)cc3)c3cc(C#N)n(C)c3C)c(C)n1C)CCN(C(=O)Cc1ccc(OCCC3CCOCC3)cc1F)C2 [Example 52, N-(5-cyano-1,2-dimethylpyrrol-3-yl)-5-[2-(2-{2-fluoro-4-[2-(oxan-4-yl)ethoxy]phenyl}acetyl)-7-{[(3S)-3-(methoxymethyl)-3,4-dihydro-1H-isoquinolin-2-yl]carbonyl}-3,4-dihydro-1H-isoquinolin-6-yl]-N-(4-hydroxyphenyl)-1,2-dimethylpyrrole-3-carboxamide]
IC50 (KMS12PE Bcl2 D103E): 1.86 nM
IC50 (KMS12PE Bcl2 A113G): 3.99 nM
IC50 (KMS12PE Bcl2 G101V): 10.6 nM
IC50 (KMS-12-PE Bcl-2 WT; Homo sapiens, KMS-12-PE): 0.0034 µM

Cc1c(N(C(=O)c2cc(-c3cc4c(cc3C(=O)N3Cc5ccccc5C[C@H]3C)CN(C(=O)Cc3ccc(OCCN5CCC(F)CC5)cc3)CC4)n(C)c2C)c2ccc(O)cc2)cc(C#N)n1C [Example 53, N-(5-cyano-1,2-dimethyl-1H-pyrrol-3-yl)-5-[2-(2-{4-[2-(4-fluoropiperidin-1-yl)ethoxy]phenyl}acetyl)-7-[(3R)-3-methyl-1,2,3,4-tetrahydroisoquinoline-2-carbonyl]-1,2,3,4-tetrahydroisoquinolin-6-yl]-N-(4-hydroxyphenyl)-1,2-dimethyl-1H-pyrrole-3-carboxamide]
IC50 (KMS12PE Bcl2 D103E): 2.76 nM
IC50 (KMS12PE Bcl2 A113G): 5.68 nM
IC50 (KMS12PE Bcl2 G101V): 16.3 nM
IC50 (KMS-12-PE Bcl-2 WT; Homo sapiens, KMS-12-PE): 0.0072 µM

Cc1c(N(C(=O)c2cc(-c3cc4c(cc3C(=O)N3Cc5ccccc5C[C@H]3C)CN(C(=O)Cc3ccc(OCCN5CCSCC5)cc3)CC4)n(C)c2C)c2ccc(O)cc2)cc(C#N)n1C [Example 55, N-(5-cyano-1,2-dimethyl-1H-pyrrol-3-yl)-N-(4-hydroxyphenyl)-1,2-dimethyl-5-{7-[(3R)-3-methyl-1,2,3,4-tetrahydroisoquinoline-2-carbonyl]-2-(2-{4-[2-(thiomorpholin-4-yl)ethoxy]phenyl}acetyl)-1,2,3,4-tetrahydroisoquinolin-6-yl}-1H-pyrrole-3-carboxamide]
IC50 (KMS12PE Bcl2 D103E): 2.91 nM
IC50 (KMS12PE Bcl2 A113G): 5.53 nM
IC50 (KMS12PE Bcl2 G101V): 13.7 nM
IC50 (KMS-12-PE Bcl-2 WT; Homo sapiens, KMS-12-PE): 0.0062 µM

Cc1c(N(C(=O)c2cc(-c3cc4c(cc3C(=O)N3Cc5ccccc5C[C@H]3CN3CCCCC3)CN(C(=O)Cc3ccc(OCCC5CCOCC5)cc3)CC4)n(C)c2C)c2ccc(O)cc2)cc(C#N)n1C [Example 66, N-(5-cyano-1,2-dimethylpyrrol-3-yl)-N-(4-hydroxyphenyl)-1,2-dimethyl-5-[2-(2-{4-[2-(oxan-4-yl)ethoxy]phenyl}acetyl)-7-{[(3S)-3-(piperidin-1-ylmethyl)-3,4-dihydro-1H-isoquinolin-2-yl]carbonyl}-3,4-dihydro-1H-isoquinolin-6-yl]pyrrole-3-carboxamide]
IC50 (KMS12PE Bcl2 D103E): 1.89 nM
IC50 (KMS12PE Bcl2 A113G): 2.89 nM
IC50 (KMS12PE Bcl2 G101V): 10.1 nM
IC50 (KMS-12-PE Bcl-2 WT; Homo sapiens, KMS-12-PE): 0.006 µM

Cc1c(C(=O)N(c2ccc(O)cc2)c2cc(C#N)n(C(F)F)c2C)cc(-c2cc3c(cc2C(=O)N2Cc4ccccc4C[C@H]2CN2CCCCC2)CN(C(=O)Cc2ccc(OCCN4CCOCC4)cc2)CC3)n1C [Example 77]
IC50 (KMS12PE Bcl2 D103E): 4.69 nM
IC50 (KMS12PE Bcl2 A113G): 7.86 nM
IC50 (KMS12PE Bcl2 G101V): 28.2 nM
IC50 (KMS-12-PE Bcl-2 WT; Homo sapiens, KMS-12-PE): 0.0084 µM

Cc1c(C(=O)N(c2ccc(O)cc2)c2cc(C#N)n(C(F)F)c2C)cc(-c2cc3c(cc2C(=O)N2Cc4ccccc4C[C@H]2CN2CCCCC2)CN(C(=O)Cc2ccc(OCCN4CCOCC4)cc2F)CC3)n1C [Example 78, N-[5-cyano-1-(difluoromethyl)-2-methylpyrrol-3-yl]-5-[2-(2-{2-fluoro-4-[2-(morpholin-4-yl)ethoxy]phenyl}acetyl)-7-{[(3S)-3-(piperidin-1-ylmethyl)-3,4-dihydro-1H-isoquinolin-2-yl]carbonyl}-3,4-dihydro-1H-isoquinolin-6-yl]-N-(4-hydroxyphenyl)-1,2-dimethylpyrrole-3-carboxamide]
IC50 (KMS12PE Bcl2 D103E): 1.18 nM
IC50 (KMS12PE Bcl2 A113G): 2.11 nM
IC50 (KMS12PE Bcl2 G101V): 8.35 nM
IC50 (KMS-12-PE Bcl-2 WT; Homo sapiens, KMS-12-PE): 0.005 µM

Cc1c(N(C(=O)c2cc(-c3cc4c(cc3C(=O)N3Cc5ccccc5C[C@H]3CN3CCC[C@H](C)C3)CN(C(=O)Cc3ccc(OCCN5CCOCC5)cc3F)CC4)n(C)c2C)c2ccc(O)cc2)cc(C#N)n1C [Example 107]
IC50 (KMS12PE Bcl2 D103E): 1.22 nM
IC50 (KMS12PE Bcl2 A113G): 2.82 nM
IC50 (KMS12PE Bcl2 G101V): 9.13 nM
IC50 (KMS-12-PE Bcl-2 WT; Homo sapiens, KMS-12-PE): 0.0034 µM
